Reference: patent US20240140931A1, “TRICYCLIC COMPOUNDS AND USES THEREOF” (HUTCHMED LIMITED, priority 2021, published 2024)

What was measured:
[1] = target: Human full-length SHP2 recombinant protein (Homo sapiens (Human), UniProt Q06124); experiment: Assay of full-length SHP2 phosphatase activity; format: biochemical; settings: DiFMUP substrate, with activating peptide
Protocol: Example 2 Assay of Full-Length SHP2 Phosphatase Activity
1. Reagents and Materials • Human full-length SHP2 recombinant protein: BPS Bioscience, Cat #79018; • SHP2 substrate DiFMUP (1 mM): BPS Bioscience, Cat #79769; • SHP2 activating peptide (100 μM): BPS Bioscience, Cat #79319-2; • DTT: Merck, Cat #DTT-RO; • 384-well plate: Corning, Cat #3575; • 96-well plate: Thermo Fisher Scientific, Cat #249952; • Instrument: EnVision 2104, PerkinElmer.
2. Preparation of Reaction Solutions
The test compound was dissolved in DMSO and diluted with DMSO to 100.0 μM, and the compound was further 3-fold diluted with DMSO to: 100.00, 33.33, 11.11, 3.70, 1.23, 0.41, 0.14 and 0.05 μM.
3. Experimental Steps • To the corresponding wells of the 384-well plate was added 2.5 μL of 4× test compound or 2.5 μL of 4% DMSO solution, and centrifugation was carried out at 1000 rpm for 30 seconds. • To the test compound well and positive control well was added 2.5 μL of 4× mixed solution of SHP2 enzyme/activating peptide while to the negative control well was added 2.5 μL of 1× enzymatic reaction buffer; centrifugation was carried out at 1000 rpm for 30 seconds and incubation was carried out at room temperature for 30 minutes. • To each well was added 5 μL of 2×DiFMUP substrate to initiate the enzymatic reaction, then the plate was transiently oscillated and centrifuged at 1000 rpm for 30 seconds, and the 384-well plate was sealed with a sealing membrane and incubated at 25° C. on a low-speed shaker (100 rpm) in the dark for 60 minutes. • The fluorescence value (relative fluorescence units, RFU) of each well was detected on EnVision2104 (excitation: 355 nm, emission: 460 nm).
wherein • the RFU of compound well refers to the fluorescence reading at 460 nm of the well containing the test compounds; • the RFU of negative control well refers to the fluorescence reading at 460 nm of the background well containing 1% DMSO and the enzymatic reaction buffer; • the RFU of positive control well refers to the fluorescence reading at 460 nm of the well containing 1% DMSO and the mixed solution of SHP2 enzyme/activating peptide.
(§1) IC50 values were calculated following formula 205: y=A+((B−A)/(1+((C/X)^D))), by using the XL-Fit 5.0 software.

[2] = test system: pERK1/2 (Thr202/Tyr204) in Miapaca2 cells; experiment: Assay of intracellular pERK1/2 (Thr202/Tyr204) phosphorylation; format: cell-based; settings: pERK1/2 (Thr202/Tyr204) HTRF
Protocol: Example 3 Assay of Intracellular pERK1/2 (Thr202/Tyr204) Phosphorylation
1. Reagents and Materials • pERK1/2 (Thr202/Tyr204) HTRF kit: Cisbio, Cat #64ERKPEH; • Cell line: Miapaca2, ATCC, CRL-1420; • OptiPlate™-384-well plate: PerkinElmer, Cat #6007299; • 96-well plate: Corning, Cat #353072; • Instrument: EnVision2104, PerkinElmer.
2. Preparation of Reaction Solutions • The test compound was dissolved in DMSO and diluted with DMSO to 600.0 μM, and the compound was further 3-fold diluted with DMSO to: 600.0, 200.0, 66.7, 22.2, 7.4, 2.5, 0.82 and 0.27 μM. Then 10 μL of the compound at different dilution concentrations was added to 190 μL of a DMEM medium to prepare a 10× test compound, wherein DMSO was at the concentration of 5% (DMSO was at the final concentration of 0.5%). • 1× cell lysis buffer: 4× cell lysis stock solution (provided by the kit) was diluted 4-fold with deionized water, and then 1% 100× blocking stock solution (provided by the kit) was added thereto. • pERK1/2 detection solution (prepared just before use): the pERK1/2 d2 antibody (provided by the kit) and pERK1/2 Cryptate antibody (provided by the kit) were diluted with the detection solution (provided by the kit) at a ratio of 1:1:38.
3. Experimental Steps • Miapaca2 cells were inoculated into a 96-well plate at a density of 10000 cells/well at 90 μL/well and cultured in a cell incubator at 5% CO2 and 37° C. overnight. • 10 μL of 10× test compound was added to the 90 μL cell culture 96-well plate; to the cell positive control well was added 10 μL of 5% DMSO culture solution; and the plate was cultured in a cell incubator at 5% CO2 and 37° C. for 2 hours. • The medium in the 96-well plate was removed; 50 μL of 1× cell lysis buffer was added to each well; the plate was placed in a microplate shaker; and lysis under shaking was carried out at 900 rpm at room temperature for 1 hour. • 16 μL of the lysis buffer in the 96-well plate was taken and transferred to a 384-well plate, and centrifugation was carried out at 1000 rpm for 30 seconds; then 4 μL of pERK1/2 detection solution was added to each well and centrifugation was carried out at 1000 rpm for 30 seconds; and the 384-well plate was sealed with a sealing membrane and incubated at 25° C. on a low-speed shaker (100 rpm) in the dark for 2 hours. • The fluorescence value (relative fluorescence units, RFU) of each well was detected on EnVision2104 (emission 1: 665 nm, emission 2: 615 nm).
wherein • the fluorescence ratio of compound well refers to the fluorescence ratio of the well containing the test compounds; • the fluorescence ratio of negative control well refers to the fluorescence ratio of the background containing the cell lysis buffer and no Miapaca2 cells; • the fluorescence ratio of positive control well refers to the fluorescence ratio of the well containing 0.5% DMSO and Miapaca2 cells.
as §1

Row | SMILES | IC50 [1] [nM] | IC50 ([2]; Homo sapiens, MIA PaCa-2, 2 h) [nM] | IC50 ([2]; 2 hours) [nM]
1 | C#Cc1ccc2c(c1)CC1(CCN(c3ncc(Sc4ccnc(N)n4)c4nccn34)CC1)[C@@H]2N [Compound 9] | 4 | 38 | 
2 | C#Cc1ccc2c(c1)CC1(CCN(c3ncc(Sc4ccnc(NC5CCC5)c4Cl)c4nccn34)CC1)[C@@H]2N [Compound 10] | 35 | 220 | 
3 | C#Cc1ccc2c(c1)[C@@H](N)C1(CCN(c3cc(=O)n(-c4ccc(F)c(F)c4)c(C)n3)CC1)C2 [Compound 15] | 8 | 87 | 
4 | C#Cc1ccc2c(c1)[C@@H](N)C1(CCN(c3cc(=O)n(-c4cccc(Cl)c4F)c(C)n3)CC1)C2 [Compound 16] | 4 |  | 34
5 | C#Cc1ccc2c(c1)[C@@H](N)C1(CCN(c3cc(=O)n(-c4cccc(Cl)c4)c(C)n3)CC1)C2 [Compound 17] | 18 | 203 | 
6 | C#Cc1ccc2c(c1)CC1(CCN(c3nc(N)c(-c4cn(C)c5ncccc45)c4nccn34)CC1)[C@@H]2N [Compound 25] | 12 | 151 | 
7 | C#Cc1ccc2c(c1)CC1(CCN(c3cc(=O)n(-c4cccc(Cl)c4)c(C)n3)CC1)[C@@H]2N [Compound 26] | 158 | > 3000 | 
8 | C#Cc1ccc2c(c1)[C@@H](N)C1(CCN(c3ncc(Sc4ccnc(N)n4)c4nccn34)CC1)C2 [Compound 27] | 1 | 11 | 
9 | C#Cc1ccc2c(c1)[C@@H](N)C1(CCN(c3cc(=O)n(-c4ccc(F)c(OC)c4)c(C)n3)CC1)C2 [Compound 29] | 25 | 489 | 
10 | COCC#Cc1ccc2c(c1)[C@@H](N)C1(CCN(c3cc(=O)n(-c4cccc(Cl)c4Cl)c(C)n3)CC1)C2 [Compound 30] | 2 | 8 | 
11 | Cc1nc(N2CCC3(CC2)Cc2ccc(C#CCOC(C)(C)C)cc2[C@H]3N)cc(=O)n1-c1cccc(Cl)c1Cl [Compound 31] | 5 | 37 | 
12 | Cc1nc(N2CCC3(CC2)Cc2ccc(C#CCO)cc2[C@H]3N)cc(=O)n1-c1cccc(Cl)c1Cl [Compound 32] | 1 | 6 | 
13 | C#Cc1ccc2c(c1)[C@@H](N)C1(CCN(c3cc(=O)n(-c4cccc(C#N)c4Cl)c(C)n3)CC1)C2 [Compound 34] | 4 |  | 244
14 | C#Cc1ccc2c(c1)[C@@H](N)C1(CCN(c3cc(=O)n(-c4c(F)cccc4F)c(C)n3)CC1)C2 [Compound 35] | 17 | 274 | 
15 | COCC#Cc1ccc2c(c1)[C@@H](N)C1(CCN(c3nc(C)n(-c4cccc(Cl)c4Cl)c(=O)c3C)CC1)C2 [Compound 36] | 6 | 33 | 
16 | Cc1nc(N2CCC3(CC2)Cc2ccc(C#C[C@@H](C)O)cc2[C@H]3N)cc(=O)n1-c1cccc(Cl)c1Cl [Compound 37] | 44 | 599 | 
17 | Cc1nc(N2CCC3(CC2)Cc2ccc(C#C[C@H](C)O)cc2[C@H]3N)cc(=O)n1-c1cccc(Cl)c1Cl [Compound 38] | 46 | 343 | 
18 | C#Cc1ccc2c(c1)[C@@H](N)C1(CCN(c3cc(=O)n(-c4cccc5[nH]ncc45)c(C)n3)CC1)C2 [Compound 39] | 21 | 294 | 
19 | COCC#Cc1ccc2c(c1)[C@@H](N)C1(CCN(c3ncc(Sc4ccnc(N)c4Cl)c4nccn34)CC1)C2 [Compound 40] | 2 | 6 | 
20 | C#Cc1ccc2c(c1)[C@@H](N)C1(CCN(c3cc(=O)n(-c4cccc(Cl)c4Cl)c(C)n3)CC1)C2 [Compound 64] | 184 | 891 | 

The next lines start with the values.

Row | IC50 [1] [nM] | IC50 ([2]; Homo sapiens, MIA PaCa-2, 2 h) [nM] | IC50 ([2]; 2 hours) [nM] | SMILES
21 | 21 | 115 |  | C#Cc1ccc2c(c1)[C@@H](N)C1(CCN(c3cc(=O)n(-c4ccc(F)cc4F)c(C)n3)CC1)C2 [Compound 41]
22 | 6 | 133 |  | C#Cc1ccc2c(c1)[C@@H](N)C1(CCN(c3cc(=O)n(-c4ccccc4Cl)c(C)n3)CC1)C2 [Compound 42, (S)-6-(1-amino-6-ethynyl-1,3-dihydrospiro[indene-2,4′-piperidin]-1′-yl)-3-(2-chlorophenyl)-2-methylpyrimidin-4(3H)-one]
23 | 6 | 117 |  | C#Cc1ccc2c(c1)[C@@H](N)C1(CCN(c3cc(=O)n(-c4cccc(OC)c4)c(C)n3)CC1)C2 [Compound 43]
24 | 60 | 415 |  | C#Cc1ccc2c(c1)[C@@H](N)C1(CCN(c3cc(=O)n(-c4cc(OC)ccc4Cl)c(C)n3)CC1)C2 [Compound 44]
25 | 11 | 261 |  | C#Cc1ccc2c(c1)[C@@H](N)C1(CCN(c3cc(=O)n(-c4ccc(F)c(Cl)c4)c(C)n3)CC1)C2 [Compound 45]
26 | 96 | 648 |  | C#Cc1ccc2c(c1)[C@@H](N)C1(CCN(c3cc(=O)n(-c4ccc(OCC)c(Cl)c4)c(C)n3)CC1)C2 [Compound 46]
27 | 11 | 115 |  | C#Cc1ccc2c(c1)[C@@H](N)C1(CCN(c3cc(=O)n(-c4cccc(Cl)c4Cl)c(C)n3)CC1)O2 [Compound 47]
28 | 18 | 364 |  | C#Cc1ccc2c(c1)[C@@H](N)C1(CCN(c3cc(=O)n(-c4cccc(SC)c4)c(C)n3)CC1)C2 [Compound 53]
29 | 3 |  | 36 | C#Cc1ccc2c(c1)[C@@H](N)C1(CCN(c3nc(C)n(-c4ccc(F)cc4Cl)c(=O)c3C)CC1)C2 [Compound 54]
30 | 26 | 388 |  | C#Cc1ccc2c(c1)[C@@H](N)C1(CCN(c3cc(=O)n(-c4cc(F)cc(F)c4)c(C)n3)CC1)C2 [Compound 55]
31 | 13 | > 1000 |  | C#Cc1ccc2c(c1)[C@@H](N)C1(CCN(c3cc(=O)n(-c4ccnc(Cl)c4)c(C)n3)CC1)C2 [Compound 60]
32 | 3 | 78 |  | C#Cc1ccc2c(c1)[C@@H](N)C1(CCN(c3cc(=O)n(-c4cccc(F)c4Cl)c(C)n3)CC1)C2 [Compound 61]
33 | 5 | 105 |  | C#Cc1ccc2c(c1)[C@@H](N)C1(CCN(c3cc(=O)n(-c4cccc(OCC)c4Cl)c(C)n3)CC1)C2 [Compound 62]
34 | 4 | 177 |  | Cc1nc(N2CCC3(CC2)Cc2ccc(Nc4cnn(C)c4)cc2[C@H]3N)cc(=O)n1-c1cccc(Cl)c1Cl [Compound 63]
35 | 1 | 39 |  | CNCC#Cc1ccc2c(c1)[C@@H](N)C1(CCN(c3cc(=O)n(-c4cccc(Cl)c4Cl)c(C)n3)CC1)C2 [Compound 67]
